# Reference: ChEMBL document CHEMBL1914411, “Synthesis of lipophilic dimeric C-7/C-7-linked ciprofloxacin and C-6/C-6-linked levofloxacin derivatives. Versatile in vitro biological evaluations of monomeric and dimeric fluoroquinolone derivatives as potential antitumor, antibacterial or antimycobacterial agents” (Eur J Med Chem, 2011)
# The source made the active and inactive calls.
# Experiments:
# Staphylococcus aureus [1] = assay: Antimicrobial activity against Staphylococcus aureus CIP 4.83 after 18 to 24 hrs by broth microdilution method; assay type: functional
# [2] = tested on: Mycobacterium tuberculosis; assay: Antimycobacterial activity against Mycobacterium tuberculosis H37Rv assessed as growth inhibition at 0.1 uM after 6 days by MTT colorimetric microassay; assay type: functional, organism-based
# Enterococcus hirae = assay: Antimicrobial activity against Enterococcus hirae CIP 5855 after 18 to 24 hrs by broth microdilution method; assay type: functional
# [3] = tested on: Mycobacterium tuberculosis; assay: Antimycobacterial activity against Mycobacterium tuberculosis H37Rv assessed as growth inhibition at 10 uM after 6 days by MTT colorimetric microassay; assay type: functional; settings: for inhibition of growth at 10 µM: 144 h, read-out: GI
# Escherichia coli = assay: Antimicrobial activity against Escherichia coli CIP 53126 after 18 to 24 hrs by broth microdilution method; assay type: functional
# Pseudomonas aeruginosa = assay: Antimicrobial activity against Pseudomonas aeruginosa CIP 82.118 after 18 to 24 hrs by broth microdilution method; assay type: functional
# Staphylococcus aureus [4] = assay: Antimicrobial activity against multidrug-resistant Staphylococcus aureus isolate 1 after 18 to 24 hrs by broth microdilution method; assay type: functional
# Staphylococcus aureus [5] = assay: Antimicrobial activity against multidrug-resistant Staphylococcus aureus isolate 2 after 18 to 24 hrs by broth microdilution method; assay type: functional
# Staphylococcus aureus [6] = assay: Antimicrobial activity against methicillin-resistant Staphylococcus aureus ATCC 33592 after 18 to 24 hrs by broth microdilution method; assay type: functional
# Staphylococcus aureus [7] = assay: Antimicrobial activity against methicillin-resistant Staphylococcus aureus ATCC 33591 after 18 to 24 hrs by broth microdilution method; assay type: functional
Structure (SMILES),MBC (Staphylococcus aureus [1]) [µM],MIC (Staphylococcus aureus [1]) [µM],growth inhibition (GI) [2],MBC (Enterococcus hirae) [µM],MIC (Enterococcus hirae) [µM],growth inhibition (GI) [3],MBC (Escherichia coli) [µM],MIC (Escherichia coli) [µM],MBC (Pseudomonas aeruginosa) [µM],MIC (Pseudomonas aeruginosa) [µM],inhibition of growth at 10 µM [3] [%],MBC (Staphylococcus aureus [4]) [µM],MIC (Staphylococcus aureus [4]) [µM],MBC (Staphylococcus aureus [5]) [µM],MIC (Staphylococcus aureus [5]) [µM],MBC (Staphylococcus aureus [6]) [µM],MBC (Staphylococcus aureus [7]) [µM],MIC (Staphylococcus aureus [7]) [µM],MIC (Staphylococcus aureus [6]) [µM]
O=C(CCCCCCCCCCCCCCCCC(=O)OCN1CCN(c2cc3c(cc2F)c(=O)c(C(=O)O)cn3C2CC2)CC1)OCN1CCN(c2cc3c(cc2F)c(=O)c(C(=O)O)cn3C2CC2)CC1,15.6,7.8,inactive,125,62.5,inactive,31.2,15.6,250,62.5,–,–,–,–,–,–,–,–,–
CCCCCCCCCCCCCC(=O)OCC(=O)N1CCN(c2cc3c(cc2F)c(=O)c(C(=O)O)cn3C2CC2)CC1,7.8,7.8,inactive,31.2,31.2,–,500,125,250,125,> 95,–,–,–,–,–,–,–,–
CCCCCCCCCCC(=O)OCC(=O)N1CCN(c2cc3c(cc2F)c(=O)c(C(=O)O)cn3C2CC2)CC1,≤ 0.97,≤ 0.97,inactive,1.9,≤ 0.97,–,250,62.5,250,62.5,> 95,500,15.6,15.6,7.8,0.03,1.9,0.97,–
CCCCCCCCCC(=O)OCOC(=O)c1cn2c3c(c(N4CCN(C)CC4)c(F)cc3c1=O)OC[C@@H]2C,≤ 0.97,≤ 0.97,inactive,1.9,≤ 0.97,–,≤ 0.97,≤ 0.97,3.9,≤ 0.97,> 95,–,–,–,–,–,–,–,–
O=C(O)c1cn(C2CC2)c2cc(N3CCN(C(=O)CCCCCCCCC(=O)N4CCN(c5cc6c(cc5F)c(=O)c(C(=O)O)cn6C5CC5)CC4)CC3)c(F)cc2c1=O,250,250,inactive,250,250,inactive,250,250,125,62.5,–,–,–,–,–,–,–,–,–
C[C@H]1COc2c(N3CCN(C)CC3)c(F)cc3c(=O)c(C(=O)NCCCCCNC(=O)c4cn5c6c(c(N7CCN(C)CC7)c(F)cc6c4=O)OC[C@@H]5C)cn1c23,500,125,inactive,250,125,–,62.5,62.5,250,62.5,60,–,–,–,–,–,–,–,–
C[C@H]1COc2c(N3CCN(C)CC3)c(F)cc3c(=O)c(C(=O)NCCCCCCCCNC(=O)c4cn5c6c(c(N7CCN(C)CC7)c(F)cc6c4=O)OC[C@@H]5C)cn1c23,15.6,15.6,inactive,125,62.5,–,3.9,3.9,250,62.5,60,–,–,–,–,–,–,–,–
CCCCCCCC(=O)OCC(=O)N1CCN(c2cc3c(cc2F)c(=O)c(C(=O)O)cn3C2CC2)CC1,≤ 0.001,≤ 0.001,inactive,≤ 0.97,≤ 0.97,–,62.5,31.2,250,31.2,> 95,500,7.8,15.6,15.6,≤ 0.001,–,≤ 0.001,≤ 0.001
CCCCCCCCC(=O)OCC(=O)N1CCN(c2cc3c(cc2F)c(=O)c(C(=O)O)cn3C2CC2)CC1,≤ 0.12,≤ 0.12,inactive,≤ 0.97,≤ 0.97,–,500,62.5,250,31.2,> 95,15.6,7.8,15.6,7.8,0.02,0.24,0.03,0.02
O=C(O)c1cn(C2CC2)c2cc(N3CCN(C(=O)CCCCCCCCCCCCCCCCC(=O)N4CCN(c5cc6c(cc5F)c(=O)c(C(=O)O)cn6C5CC5)CC4)CC3)c(F)cc2c1=O,500,125,inactive,500,125,inactive,500,125,250,125,–,–,–,–,–,–,–,–,–
